Laboratory results published in patent US20230091047A1 (priority 2019, published 2023).
Where two headings read alike, the source gives them in different places.

How the values were obtained:
[1] = in vitro; type: cell-based; details: human, HepG2 or HepG2.117 cells, ATPlite, mean value
Summary of the method: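 Luminescent ATP quantitation served as the viability endpoint following a 3- or 4-day incubation with test compounds.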

[2] = system: HBV (HepG2.117 cell line, inducibly HBV producing); assay: Anti-HBV activity: intracellular HBV DNA by real-time PCR in HepG2.117 cells after 3 days of treatment; type: cell-based, hepatitis B virus
Summary of the method: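 HepG2.117 cells (Tet-off, inducible HBV production) were induced to replicate HBV by doxycycline absence, then treated with serially diluted compound for 3 days. Activity was quantified as intracellular HBV DNA by real-time PCR using an HBV-specific primer set and probe.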

[3] = 3-days incubation (unmarked values)
[4] = Hepatitis B virus, HepG2.117, 72 h, HepG2.117 cells, 3 days of treatment, intracellular HBV DNA by real-time PCR; mean value; read-out: EC50 (μM, mean value)
[5] = 3-days incubation (not marked with *)
[6] = Hepatitis B virus, HepG2.117, 72 h, HepG2.117 cells, intracellular HBV DNA by real-time PCR, 3 days of treatment, mean value; read-out: EC50 (μM, mean value)

SMILES	CC50 at 3 days [1, 3] [µM]	EC50 [2, 4] [µM]	CC50 at 3 days [1, 5] [µM]	EC50 [2, 6] [µM]	CC50 at 4 days ([1]; 4-days incubation (values marked with *)) [µM]
COc1ccc(CNc2nc3c(c(=O)[nH]2)CC(c2ccc(F)cc2)N(C(=O)c2ccc(Cl)c(Cl)c2)C3)cc1 (stereo not drawn) [Compound C94, 7-(3,4-dichlorobenzoyl)-6-(4-fluorophenyl)-2-{[(4-methoxyphenyl)methyl]amino}-5,6,7,8-tetrahydropyrido[3,4-d]pyrimidin-4(3H)-one]	> 50	0.77			
CNC(=O)c1ccc(-n2c(N[C@@H](C)c3ccc(C(F)F)cc3)nc3c(c2=O)C[C@@H](C)N(C(=O)c2ccc(Cl)c(Cl)c2)C3)cc1 [Compound C609]			18.7	0.08	
COc1ccc(CNc2nc3c(c(=O)n2-c2ccccc2OC)CCN(C(=O)c2cc4ccccc4[nH]2)C3)cc1 [Compound C2, 7-(1H-indole-2-carbonyl)-2-((4-methoxybenzyl)amino)-3-(2-methoxyphenyl)-5,6,7,8-tetrahydropyrido[3,4-d]pyrimidin-4(3H)-one]		1.75			> 50
CC(C)Nc1nc2c(c(=O)n1-c1ccc(-c3nnc[nH]3)cc1)C[C@@H](C)N(C(=O)c1ccc(Cl)c(Cl)c1)C2 [Compound C610]			> 50	0.17	
CC[C@H](C)Oc1nc2c(c(=O)n1-c1ccc(C(=O)NC)cc1)C[C@@H](C)N(C(=O)c1ccc(Cl)c(Cl)c1)C2 [Compound C398]			25.3	0.1	
CNC(=O)c1ccc(-n2c(NC(C)c3ccnn3C)nc3c(c2=O)C[C@@H](C)N(C(=O)c2ccc(Cl)c(Cl)c2)C3)cc1 (stereo partly drawn) [Compound C372]	> 50	11.7			
CNC(=O)c1ccc(-n2c(NCc3ccc4[nH]ccc4c3)nc3c(c2=O)C[C@@H](C)N(C(=O)c2ccc(Cl)c(Cl)c2)C3)cc1 [Compound C284, 4-[(6R)-7-(3,4-dichlorobenzoyl)-2-{[(1H-indol-5-yl)methyl]amino}-6-methyl-4-oxo-5,6,7,8-tetrahydropyrido[3,4-d]pyrimidin-3(4H)-yl]-N-methylbenzamide]	> 50	0.13			
CCOC(=O)c1ccc(-n2c(NC(CCO)C3CC3)nc3c(c2=O)C[C@@H](C)N(C(=O)c2ccc(Cl)c(Cl)c2)C3)cc1 (stereo partly drawn) [Compound C230, ethyl 4-[(6R)-2-[(1-cyclopropyl-3-hydroxypropyl)amino]-7-(3,4-dichlorobenzoyl)-6-methyl-4-oxo-5,6,7,8-tetrahydropyrido[3,4-d]pyrimidin-3(4H)-yl]benzoate]	> 50	1.7			
COc1ccc(CNc2nc3c(c(=O)[nH]2)CCN(C(=O)c2ccc(C(F)(F)F)cc2)C3)cc1 [Compound C118, 2-{[(4-methoxyphenyl)methyl]amino}-7-[4-(trifluoromethyl)benzoyl]-5,6,7,8-tetrahydropyrido[3,4-d]pyrimidin-4(3H)-one]	39	22			
COc1ccc(CNc2nc3c(c(=O)n2-c2ccc(S(C)(=O)=O)cc2)CCN(C(=O)c2ccc(Cl)c(Cl)c2)C3)cc1 [Compound C84, 7-(3,4-dichlorobenzoyl)-3-[4-(methanesulfonyl)phenyl]-2-{[(4-methoxyphenyl)methyl]amino}-5,6,7,8-tetrahydropyrido[3,4-d]pyrimidin-4(3H)-one]	> 50	0.57			
COc1ccc(CNc2nc3c(c(=O)[nH]2)CCN(C(=O)c2ccc(Br)c(C)c2)C3)cc1 [Compound C104, 7-(4-bromo-3-methylbenzoyl)-2-{[(4-methoxyphenyl)methyl]amino}-5,6,7,8-tetrahydropyrido[3,4-d]pyrimidin-4(3H)-one]	24.1	1.8			
CNC(=O)c1ccc(-n2c(N(C)Cc3nc(C)n[nH]3)nc3c(c2=O)C[C@@H](C)N(C(=O)c2ccc(Cl)c(Cl)c2)C3)cc1 [Compound C595]			> 50	> 25	
C[C@@H]1Cc2c(nc(NC3(c4ccncc4)CC3)n(-c3ccc(S(C)(=O)=O)cc3)c2=O)CN1C(=O)c1ccc(Cl)c(Cl)c1 [Compound C198, (6R)-7-(3,4-dichlorobenzoyl)-3-[4-(methanesulfonyl)phenyl]-6-methyl-2-{[1-(pyridin-4-yl)cyclopropyl]amino}-5,6,7,8-tetrahydropyrido[3,4-d]pyrimidin-4(3H)-one]	> 50	3.25			
CC(C)Nc1nc2c(c(=O)n1-c1ccc(S(C)(=O)=O)cc1)CCN(C(=O)c1ccn3nccc3c1)C2 [Compound C138, 3-[4-(methanesulfonyl)phenyl]-2-[(propan-2-yl)amino]-7-(pyrazolo[1,5-a]pyridine-5-carbonyl)-5,6,7,8-tetrahydropyrido[3,4-d]pyrimidin-4(3H)-one]	> 50	5.98			
Cc1[nH]cnc1-c1ccc(-n2c(NC(C)C)nc3c(c2=O)C[C@@H](C)N(C(=O)c2ccc(Cl)c(Cl)c2)C3)cc1 [Compound C248, (6R)-7-(3,4-dichlorobenzoyl)-6-methyl-3-[4-(5-methyl-1H-imidazol-4-yl)phenyl]-2-[(propan-2-yl)amino]-5,6,7,8-tetrahydropyrido[3,4-d]pyrimidin-4(3H)-one]	31.1	0.13			
CNS(=O)(=O)c1ccc(-n2c(NC(C)C)nc3c(c2=O)C[C@@H](C)N(C(=O)c2ccc(Cl)c(Cl)c2)C3)cc1 [Compound C339, 4-[(6R)-7-(3,4-dichlorobenzoyl)-6-methyl-4-oxo-2-[(propan-2-yl)amino]-5,6,7,8-tetrahydropyrido[3,4-d]pyrimidin-3(4H)-yl]-N-methylbenzene-1-sulfonamide]	> 50	0.57			
CNC(=O)c1cc(Cl)c(-n2c(NC(C)C)nc3c(c2=O)C[C@@H](C)N(C(=O)c2ccc(Cl)c(C(F)(F)F)c2)C3)c(Cl)c1 [Compound C688]			29.3	0.04	
CNC(=O)c1ccc(-n2c(N3CCC[C@H]3c3ccccc3)nc3c(c2=O)C[C@@H](C)N(C(=O)c2ccc(Cl)c(Cl)c2)C3)cc1 (single isomer, unassigned) [Compound C401b]			18.2	0.83	
CNC(=O)c1ccc(-n2c(N[C@H](C)c3ccc(C(F)(F)F)c(F)c3)nc3c(c2=O)C[C@@H](C)N(C(=O)c2ccc(Cl)c(Cl)c2)C3)cc1 (single isomer, unassigned) [Compound C659a]			6.8	0.12	
CNC(=O)c1ccc(-n2c(NCc3nc(-c4ccccc4)n[nH]3)nc3c(c2=O)C[C@@H](C)N(C(=O)c2ccc(Cl)c(Cl)c2)C3)cc1 [Compound C486]			> 50	17.3	
CNC(=O)c1ccc(-n2c(NC(C)C)nc3c(c2=O)C[C@@H](C)N(C(=O)c2ccc(Cl)c(Cl)c2)C3)cc1OC [Compound C317, 4-[(6R)-7-(3,4-dichlorobenzoyl)-6-methyl-4-oxo-2-[(propan-2-yl)amino]-5,6,7,8-tetrahydropyrido[3,4-d]pyrimidin-3(4H)-yl]-2-methoxy-N-methylbenzamide]	> 50	0.14			
CCc1cc(C(=O)NC)ccc1-n1c(NC(C)C)nc2c(c1=O)C[C@@H](C)N(C(=O)c1ccc(Cl)c(Cl)c1)C2 (single isomer, unassigned) [Compound C383a]			> 50	0.32	
CNC(=O)c1ccc(-n2c(N[C@@H](C)c3ccccc3OC(F)F)nc3c(c2=O)C[C@@H](C)N(C(=O)c2ccc(Cl)c(Cl)c2)C3)cc1 (single isomer, unassigned) [Compound C438b]			29.9	0.15	
CNC(=O)c1ccc(-n2c(NC(C)C)nc3c(c2=O)C[C@@H](C)N(C(=O)c2ccc(Cl)cc2Cl)C3)cc1 [Compound C582]			> 50	2.34	
CNC(=O)c1ccc(-n2c(NC(C)C)nc3c(c2=O)C[C@@H](C)N(C(=O)c2ccc(Cl)c(C(F)(F)F)c2)C3)cc1 [Compound C428]			> 50	0.03	
CNC(=O)c1n[nH]c(-n2c(NC(C)C)nc3c(c2=O)C[C@@H](C)N(C(=O)c2ccc(Cl)c(Cl)c2)C3)c1C [Compound C693]			> 50	0.11	
CNC(=O)c1ccc(-n2c(NC(C)C)nc3c(c2=O)C[C@@H](C)N(C(=O)c2ccc(Cl)c(Cl)c2)C3)c(C)c1 [Compound C300a, 4-[(6R)-7-(3,4-dichlorobenzoyl)-6-methyl-4-oxo-2-[(propan-2-yl)amino]-5,6,7,8-tetrahydropyrido[3,4-d]pyrimidin-3(4H)-yl]-N,3-dimethylbenzamide]	> 50	0.06			
CNC(=O)c1ccc(-n2c(N[C@@H](C)c3cccnc3)nc3c(c2=O)C[C@@H](C)N(C(=O)c2ccc(Cl)c(Cl)c2)C3)cc1 (single isomer, unassigned) [Compound C377b]	> 50	3.95			
CNC(=O)c1ccc(-n2c(NC(C)C)nc3c(c2=O)C[C@@H](C)N(C(=O)c2ccc(F)c(C(F)F)c2)C3)cc1 [Compound C634]			> 50	0.63	
CC(C)Nc1nc2c(c(=O)n1[C@H]1CC[C@H](C(=O)O)CC1)C[C@@H](C)N(C(=O)c1ccc(Cl)c(Cl)c1)C2 [Compound C254, trans-4-[(6R)-7-(3,4-dichlorobenzoyl)-6-methyl-4-oxo-2-[(propan-2-yl)amino]-5,6,7,8-tetrahydropyrido[3,4-d]pyrimidin-3(4H)-yl]cyclohexane-1-carboxylic acid]	> 50	1.99			
